The text below walks through data of US10442773B2, “Amorphous letermovir and solid pharmaceutical formulations thereof for oral administration” (AICURIS ANTI-INFECTIVE CURES GMBH, priority 2013, dated 2019).

In brackets after ≈: the same amount, converted by molar mass. Like-named read-outs stand apart in the source and are kept apart here.

A short description of series [1]: pH-solubility profile of amorphous Letermovir (BCS approach). It counts as physicochemical. As to conditions: standard buffer solutions, thermodynamic from solid. The method, then: The inventors conducted a solubility study of amorphous Letermovir to investigate its biopharmaceutical status by standardized measures. The inventors orientated on the guidelines of the established Biopharmaceutics Classification System (BCS). The solubility class boundary according to the BCS is based on the highest dose strength of the IR product. By using the BCS approach the equilibrium solubility of amorphous Letermovir under physiological pH conditions is determined. The pH-solubility profile of amorphous Letermovir was determined at 37±1° C. in aqueous media with a pH in the range of 1-7.5. A sufficient number of pH conditions were evaluated to accurately define the pH-solubility profile of amorphous Letermovir. The number of pH conditions for the solubility determination was based on the ionization characteristics of Letermovir. A minimum of three replicate determinations of solubility in each pH condition was conducted. The highest dose of Letermovir is exemplarily 240 mg. When dissolved in 250 ml this equates to a concentration of 0.96 mg/ml.

Series [2] can be described thus: Absolute bioavailability, Cohort 1 of a clinical trial (oral vs intravenous). As to conditions: human, plasma; single 30 mg oral dose (amorphous) vs 30 mg intravenous 30 min infusion; based on AUC0-last; 12 healthy female subjects. It counts as in vivo. The method, then: Assessment of absolute bioavailability after oral administration of 30 mg Letermovir in the amorphous state versus a 30 minute intravenous administration of 30 mg Letermovir in 150 ml saline solution 0.9%. Cohort 1 of the trial was conducted in an open-label, randomized (to treatment sequence), single center cross-over design (2 periods) in 12 healthy female subjects. Subjects received a single intravenous dose of 30 mg Letermovir via a 30-minute infusion in one period (“reference”) and a single oral dose of 30 mg Letermovir in the amorphous state in the other period (“test”). In both periods subjects were in-house from Day −1 to Day 4 (72 h after dosing on Day 1). The washout period between the periods (i.e. the dosing) was at least one week. The 30 mg dose in Cohort 1 was evaluated (see FIGS. 7a and 7b). Plasma concentrations of Letermovir were determined using a lower limit of quantification (LLOQ) of 1.00 ng/mL. Pharmacokinetic parameters AUC0-∞, Cmax, F, AUC0-last, tmax, λZ, t1/2z, CL/F, CL, Vd/F, Vd, MRT, AUC0-∞/D, Cmax/D, AUC0-last/D for Cohort 1 were calculated in WinNonlin using the actual sampling times. Descriptive statistics were calculated for the plasma concentrations and for the derived pharmacokinetic parameters. Statistics included sample size (n), mean, standard deviation (SD), percentage of coefficient of variation (% CV), geometric mean, median, minimum, and maximum. […]

A short description of series [3]: Long-term stability study of Letermovir precipitate tablets. It counts as physicochemical. The method, then: Long-term stability studies were conducted with testing of color, dissolution, degradation products and assay at regular intervals to confirm the stability of amorphous Letermovir precipitate tablets.
In addition, disintegration, water content and hardness/breaking load were conducted as informative tests.
Samples of one batch of each dose strength of Letermovir precipitate tablets, packaged in 45 ml HDPE bottles with child-resistant closures were stored at 25° C./60% relative humidity and at 40° C./75% relative humidity. Stability data after 36 months storage were reported.
Additional forced degradation studies were conducted. One batch per dose strength of Letermovir was stored at 60° C. for 3 months. In order to assess the hydrolytic stability, one batch of the 20 mg dose strength was stored with open storage at 40° C./75% relative humidity for 3 months.

A short description of series [4]: Ionization characteristics (isoelectric point, pKa). It counts as physicochemical. The text has this:
The expressions “zwitterionic, zwitterionic properties, and zwitterion” in the context of the present invention for the API Letermovir means that a Letermovir molecule is a neutral molecule having a positive and a negative electrical charge at different locations within the same molecule. Accordingly, the API Letermovir has a charge, which changes with pH when measured in an electric field. […] The net charge is influenced by the pH value. Letermovir has a fixed value of isoelectric point (pI) being the pH value at which the number of cations is equal to that of anions. At this point (pI=5.55) the net electric charge of Letermovir is always zero. The solubility class boundary according to the BCS is based on the highest dose strength of the IR product. By using the BCS approach the equilibrium solubility of amorphous Letermovir under physiological pH conditions is determined. The pH-solubility profile of amorphous Letermovir was determined at 37±1° C. in aqueous media with a pH in the range of 1-7.5. A sufficient number of pH conditions were evaluated to accurately define the pH-solubility profile of amorphous Letermovir. The number of pH conditions for the solubility determination was based on the ionization characteristics of Letermovir. A minimum of three replicate determinations of solubility in each pH condition was conducted.

Series [5] has as its system HCMV isolates. The series is described as follows: Antiviral activity against HCMV isolates. The class given is cell-based, human cytomegalovirus. As to conditions: Human betaherpesvirus 5; HCMV isolates of the respective individual; SD 0.0001 to 0.001. From the text: The term “pharmaceutical activity” of Letermovir denotes the antiviral activity against HCMV isolates of the respective individual, being in the range of EC50±SD of 0.0005 to 0.005±0.0001 to 0.001.

As to `COc1cccc(N2CCN(C3=Nc4c(F)cccc4[C@H](CC(=O)O)N3c3cc(C(F)(F)F)ccc3OC)CC2)c1` [Letermovir, (S)-{8-Fluoro-2-[4-(3-methoxyphenyl)-1-piperazinyl]-3-[2-methoxy-5-(trifluoromethyl)phenyl]-3,4-dihydro-4-quinazolinyl}acetic acid], the solubility (commonly the dissolved amount per volume that the medium holds) at 24 h is at least 400 µg/mL in series [1] (37 °C, aqueous buffer, pH range 1 to 7.5, summary of Table 3, read-out: solubility of Letermovir over the pH-range of 1 to 7.5); 800 µg/mL (≈ 1400 µM) in series [1] (aqueous buffer, pH 2.9 (pKa1 − 1), 37°C±1°C, standard buffer, stirring 24 hours, read-out: Letermovir solubility); 400 µg/mL (≈ 699 µM) in series [1] (aqueous buffer, pH 3.9 (pKa1), 37°C±1°C, standard buffer, stirring 24 hours, read-out: Letermovir solubility); 400 µg/mL in series [1] (aqueous buffer, pH 4.9 (pKa1 + 1), 37°C±1°C, standard buffer, stirring 24 hours, read-out: Letermovir solubility); over 1000 µg/mL in series [1] (aqueous buffer, pH 7.5, 37°C±1°C, standard buffer, stirring 24 hours, read-out: Letermovir solubility); over 900 µg/mL in series [1] (simulated gastric fluid, pH 1, 37°C±1°C, standard buffer, stirring 24 hours, read-out: Letermovir solubility). The bioavailability (usually dose-corrected exposure relative to a reference, in per cent) in series [2] amounted to 76%. In addition, the “stability under long-term and accelerated storage conditions” value in series [3] (25°C/60% relative humidity and 40°C/75% relative humidity, 36 months) is on record as “stable”. The same compound returned a shelf-life assigned in series [3] (real time data at 25°C/60% RH) of 36 months. The pKa1 in series [4] was 3.9 (pKa1). Besides, the “isoelectric point (pI)” value in series [4] (pH at which net electric charge is zero) is recorded as 5.55. The EC50 (as a rule, the midpoint of the concentration-response curve) in series [5] fell in the range of 0.5 to 5 nM.
